pKa data for four compounds are collected here from patent US20260212886A1, “MAGNETIC RECORDING MEDIUM AND CARTRIDGE” (Sony Group Corporation, priority 2023, published 2026).

Where only a bound is given, the exact number is not on record here.

This series can be described thus: Acid dissociation constant (pKa) by potentiometric titration (JIS K 0070:1992). An excerpt:
The acid dissociation constant (pKa) is a parameter indicating the degree of dissociation of an acid. When the ionization constant of an acid is Ka, the acid dissociation constant is defined by pKa=−log10 Ka.

Compound `O=C(O)c1ccc(O)cc1` [4-hydroxybenzoic acid] had a pKa of at most 5.

In the case of `O=C(O)CC(O)(CC(=O)O)C(=O)O` [Citric acid, citric acid], the pKa is at most 5.

Compound `O=C(O)c1cccc(C(=O)O)c1` [Isophthalic acid, isophthalic acid] gave a pKa of at most 5.

On to `O=P(O)(O)c1ccccc1` [Phenylphosphonic acid], for which the pKa was at most 5.
